Test results as given in patent US20190381014A1, “ISOQUINOLINONE COMPOUNDS AND USE THEREOF IN PREPARATION OF ANTIVIRAL DRUGS” (Ginkgo Pharma Co., Ltd., priority 2016, published 2019).

Each compound was assayed on HBsAg (assay: HBsAg inhibition in HepG2.2.15 culture supernatant (ELISA)). Details: HepG2.2.15 cells, supernatant on day 8, ELISA; read-out: Activity in HBsAg inhibition, EC50.
Format: cell-based, HBV
Method: Test method: HepG2.2.15 cell line was seeded into 96-well plates at 1.5×10^4 cells/well. On the following day, the cells were treated with a three-fold serial dilution series of the compounds at eight concentration points, and 2 duplicate wells were determined in parallel. The final DMSO concentration in the culture solution was 0.5%. On the fifth day, the culture solution was replaced with fresh solution containing the compounds. On the eighth day, the culture supernatant was collected and the HBsAg in the culture supernatant was detected by ELISA. The percent inhibition was calculated with respect to the blank control.

**Q.** How did the EC50 turn out when `COCC1(COc2cc3c(cc2OC)-c2cc(=O)c(C(=O)O)cn2C(C(C)(C)C)C3)CC1` (racemic) [Compound I-30-rac, 6-(tert-butyl)-10-methoxy-9-((1-(methoxymethyl)cyclopropyl)methoxy)-2-oxo-6,7-dihydro-2H-pyrido[2,1-α]isoquinoline-3-carboxylic acid] was run?
**A.** 6.74 nM

Same assay, conditions: Hepatitis B virus, HepG2.2.15, 192 h, read-out: Activity in HBsAg inhibition, EC50

**Q.** For `COc1cc2c(cc1OCCCC(C)=O)CC(C(C)C)n1cc(C(=O)O)c(=O)cc1-2` (racemic) [Compound I-9-rac, 6-isopropyl-10-methoxy-2-oxo-9-((4-oxopentyl)oxy)-6,7-dihydro-2H-pyrido[2,1-α]isoquinoline-3-carboxylic acid], which EC50 is on record?
**A.** 3.71 nM

**Q.** With `COCC1(COc2cc3c(cc2OC)-c2cc(=O)c(C(=O)O)cn2C(C(C)C)C3)COC1` (racemic) [Compound I-7-rac, 6-isopropyl-10-methoxy-9-((3-(methoxymethyl)oxetan-3-yl)methoxy)-2-oxo-6,7-dihydro-2H-pyrido[2,1-α]isoquinoline-3-carboxylic acid] as the compound, how does the EC50 read?
**A.** 4.68 nM

**Q.** With `CC(C)C1Cc2cc(O[C@@H]3CCOC3)c(Cl)cc2-c2cc(=O)c(C(=O)O)cn21` (mixture of isomers) [Compound I-22-rac, 10-chloro-6-isopropyl-2-oxo-9-(((R)-tetrahydrofuran-3-yl)oxy)-6,7-dihydro-2H-pyrido [2,1-α]isoquinoline-3-carboxylic acid] as the compound, how does the EC50 read?
**A.** 5.46 nM

**Q.** Which EC50 does the source give for `COCCCOc1cc2c(cc1OC)-c1cc(=O)c(C(=O)O)cn1C(C(C)C)C2` (racemic) [A-rac, reference compound] here?
**A.** 8.21 nM

**Q.** `COc1cc2c(cc1O[C@H]1C[C@H](OC)C1)CC(C(C)C)n1cc(C(=O)O)c(=O)cc1-2` (mixture of isomers) [Compound I-5-rac, 6-isopropyl-10-methoxy-9-((1R,3S)-3-methoxycyclobutoxy)-2-oxo-6,7-dihydro-2H-pyrido[2,1-α]isoquinoline-3-carboxylic acid] was tested. Which EC50 did it give?
**A.** 3.56 nM

**Q.** For `COc1cc2c(cc1O[C@H]1C[C@H](OC)C1)CC(C(C)(C)C)n1cc(C(=O)O)c(=O)cc1-2` (mixture of isomers) [Compound I-29-rac, 6-(tert-butyl)-10-methoxy-9-((1R,3R)-3-methoxycyclobutoxy)-2-oxo-6,7-dihydro-2H-pyrido[2,1-α]isoquinoline-3-carboxylic acid], which EC50 is on record?
**A.** 6.45 nM

**Q.** `COCCC#Cc1cc2c(cc1OC)-c1cc(=O)c(C(=O)O)cn1[C@H](C(C)C)C2` [Compound I-12, (S)-6-isopropyl-10-methoxy-9-(4-methoxybut-1-yn-1-yl)-2-oxo-6,7-dihydro-2H-pyrido [2,1-α]isoquinoline-3-carboxylic acid] was tested. Which EC50 did it give?
**A.** 3.83 nM

**Q.** With `COCC1(COc2cc3c(cc2OC)-c2cc(=O)c(C(=O)O)cn2C(C(C)(C)COC)C3)CC1` (racemic) [Compound I-54-rac, 10-methoxy-6-(1-methoxy-2-methylpropan-2-yl)-9-((1-(methoxymethyl)cyclopropyl)methoxy)-2-oxo-6,7-dihydro-2H-pyrido[2,1-α]isoquinoline-3-carboxylic acid] as the compound, how does the EC50 read?
**A.** 5.34 nM

**Q.** `COc1cc2c(cc1OC1COC1)CC(C(C)C)n1cc(C(=O)O)c(=O)cc1-2` (racemic) [Compound I-4-rac, 6-isopropyl-10-methoxy-9-(oxetan-3-yloxy)-2-oxo-6,7-dihydro-2H-pyrido[2,1-α]isoquinoline-3-carboxylic acid] was tested. Which EC50 did it give?
**A.** 3.62 nM

**Q.** Which EC50 does the source give for `COc1cc2c(cc1O[C@H]1CCOC1)CC(C(C)C)n1cc(C(=O)O)c(=O)cc1-2` (mixture of isomers) [Compound I-1-rac, 6-isopropyl-10-methoxy-2-oxo-9-(((S)-tetrahydrofuran-3-yl)oxy)-6,7-dihydro-2H-pyrido[2,1-α]isoquinoline-3-carboxylic acid] here?
**A.** 5.74 nM

**Q.** `COCC(C)(C)C1Cc2cc(OCC3CC(OC)C3)c(OC)cc2-c2cc(=O)c(C(=O)O)cn21` (racemic) [Compound I-56-rac, 10-methoxy-6-(1-methoxy-2-methylpropan-2-yl)-9-((3-methoxycyclobutyl)methoxy)-2-oxo-6,7-dihydro-2H-pyrido[2,1-α]isoquinoline-3-carboxylic acid] was tested. Which EC50 did it give?
**A.** 5.95 nM
